In US7906512B2, “3,6-substituted imidazol[1,2-b]pyridazine analogs for treating allergic and inflammatory diseases” (Alcon, Inc., priority 2005, dated 2011):

Target: Syk (h) (Homo sapiens, UniProt P43405)
Test: Syk kinase inhibition assay (33P-ATP filter binding)
Assay type: biochemical
Conditions: not given
Procedure: In a final reaction volume of 25 μl, Syk (h) (5-10 mU) is incubated with 50 mM Tris pH 7.5, […], 0.1 mM Na3VO4, 0.1% β-mercaptoethanol, 0.1 mg/mL poly (Glu, Tyr) 4:1, 10 μM test agent, 10 mM MgAcetate and [γ-^33P-ATP] (specific activity approximately 500 cpm/pmol, concentration as required). The reaction is initiated by the addition of the MgATP mix. After incubation for 40 minutes at room temperature, the reaction is stopped by the addition of 5 μl of a 3% phosphoric acid solution. 10 μl of the reaction is then spotted onto a Filtermat A and washed three times for 5 minutes in 75 mM phosphoric acid and once in methanol prior to drying and scintillation counting. Percent inhibition was calculated using the following formula: % Control=((sample-mean no enzyme)/(mean plus enzyme−mean no enzyme))×100.

Row | Compound | inhibition at 10 µM
1 | CCCC/C=C/c1cnc2ccc(NCCN(C)C)nn12 | 27%

Same assay, conditions: 10 μM test agent; 40 minutes at room temperature; substrate poly (Glu, Tyr) 4:1; read-out: % inhibition

Row | Compound | inhibition at 10 µM
2 | c1n[nH]cc1-c1cnc2ccc(NC3CCOCC3)nn12 | 42%
3 | CN1CCN(c2ccc(CNc3ccc4ncc(-c5cccc(OC(F)(F)F)c5)n4n3)cc2)CC1 | 33%
4 | COc1cc(CNc2ccc3ncc(-c4ccc(Oc5ccccc5)cc4)n3n2)cc(OC)c1OC | 24%

Results, then the compound that gave them:

Row | inhibition at 10 µM | Compound
5 | 81% | COc1ccccc1-c1cnc2ccc(NCc3ccccn3)nn12
6 | 77% | COc1ccc(-c2cnc3ccc(NCc4ccccn4)nn23)cc1
7 | 38% | CCCNc1ccc2ncc(-c3cc(C)cs3)n2n1
8 | 26% | c1csc(-c2cnc3ccc(NCC4CC4)nn23)c1
9 | 23% | CCCNc1ccc2ncc(-c3ccsc3)n2n1
